Measured values published in US6962920B2, “Pyrimidine derivatives and methods of making and using these derivatives” (Duquesne University of the Holy Ghost, priority 1992, dated 2005).
Where two headings read alike, the source gives them in different places. Blank lines part the entries; values can stand above or below the molecule they belong to.

Key:
Tg DHFR = biological target: T1, Tg DHFR (Toxoplasma gondii, UniProt Q07422); experiment: biochemical; type: biochemical; details: for rl/tg: selectivity ratio
T1 sequence (Q07422 1-610): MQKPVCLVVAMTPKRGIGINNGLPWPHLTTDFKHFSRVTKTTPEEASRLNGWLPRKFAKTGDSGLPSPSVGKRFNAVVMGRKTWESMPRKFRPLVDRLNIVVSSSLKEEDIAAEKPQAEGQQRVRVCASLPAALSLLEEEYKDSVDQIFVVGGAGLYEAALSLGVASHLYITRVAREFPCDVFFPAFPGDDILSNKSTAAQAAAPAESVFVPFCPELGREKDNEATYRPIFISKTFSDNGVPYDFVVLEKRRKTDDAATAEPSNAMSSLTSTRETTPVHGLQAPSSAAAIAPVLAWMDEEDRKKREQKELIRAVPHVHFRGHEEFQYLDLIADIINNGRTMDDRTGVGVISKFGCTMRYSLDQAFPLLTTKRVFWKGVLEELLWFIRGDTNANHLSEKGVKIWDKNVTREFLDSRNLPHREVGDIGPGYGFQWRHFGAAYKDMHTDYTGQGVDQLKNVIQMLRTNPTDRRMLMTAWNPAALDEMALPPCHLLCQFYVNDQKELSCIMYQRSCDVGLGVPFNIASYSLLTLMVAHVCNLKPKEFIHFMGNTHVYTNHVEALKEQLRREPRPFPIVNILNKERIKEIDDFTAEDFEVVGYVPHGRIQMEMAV
Description: (§1) The selectivity ratio is a measure of the selectivity of a compound for Pc DHFR or Tg DHFR and is expressed as the IC50 value of the DHFR from rate liver (RL) divided by the IC50 value of either the Pc DHFR or the Tg DHFR, depending on which organism the compounds are being tested against. For example, the selectivity ratio of a compound is calculated by the following formula: [formula]

RL DHFR = biological target: T2, RL DHFR (Rattus norvegicus, UniProt Q920D2); experiment: Inhibition of DHFR from rat liver; type: biochemical
T2 construct: Toxoplasmosis gondii (Tg) and rat liver (RL); from tissue; host or cells: rat liver
T2 sequence (Q920D2 1-187): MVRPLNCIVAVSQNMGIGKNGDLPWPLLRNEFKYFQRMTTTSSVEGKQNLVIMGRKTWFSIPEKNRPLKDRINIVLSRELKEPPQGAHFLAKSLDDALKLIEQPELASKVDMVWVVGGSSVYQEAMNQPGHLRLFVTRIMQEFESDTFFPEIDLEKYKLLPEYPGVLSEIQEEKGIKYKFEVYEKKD
Description: as §1

Pc DHFR [1] = biological target: T3, Pc DHFR (Pneumocystis carinii, UniProt P16184); experiment: biochemical
T3 sequence (P16184 1-206): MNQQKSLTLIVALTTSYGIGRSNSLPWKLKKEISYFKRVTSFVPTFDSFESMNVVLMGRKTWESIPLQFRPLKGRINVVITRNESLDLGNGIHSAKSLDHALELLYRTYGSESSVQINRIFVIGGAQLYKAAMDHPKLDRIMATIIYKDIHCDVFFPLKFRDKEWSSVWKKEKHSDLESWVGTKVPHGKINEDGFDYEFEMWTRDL

Pc DHFR [2] = biological target: T3, Pc DHFR; type: biochemical; details: for Selectivity ratio rl/pc: IC50 rlDHFR/IC50 pcDHFR; for Selectivity Ratio RL/Pc: Table 16
Description: as §1

[3] = biological target: E-coli thymidylate synthase (ecTS) (Escherichia coli, UniProt P0A884); experiment: Inhibition of E. coli thymidylate synthase; type: biochemical; details: for % in parentheses after the > value, ecTS: Table 22, at the concentration given
Sequence of E-coli thymidylate synthase (ecTS) (P0A884 whole entry): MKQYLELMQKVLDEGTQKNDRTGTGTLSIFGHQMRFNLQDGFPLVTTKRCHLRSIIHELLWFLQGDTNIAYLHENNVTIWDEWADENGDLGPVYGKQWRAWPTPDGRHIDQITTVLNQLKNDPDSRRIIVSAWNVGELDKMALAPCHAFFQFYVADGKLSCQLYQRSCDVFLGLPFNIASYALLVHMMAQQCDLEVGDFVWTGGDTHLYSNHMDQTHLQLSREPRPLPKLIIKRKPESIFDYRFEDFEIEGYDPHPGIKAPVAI
Description: All of the compounds were tested against human cells, L. casei, E. coli, and S. faecium.

[4] = Table 16, read-out: Tg DHFR IC50
[5] = Table 25, read-out: Inhibitor Concentrations (IC50) tgDHFR
[6] = Table 16, read-out: RL DHFR IC50
[7] = Table 25, read-out: Inhibitor Concentrations (IC50) rlDHFR
[8] = Table 16, read-out: Pc DHFR IC50
[9] = Table 25, read-out: Inhibitor Concentrations (IC50) pcDHFR
[10] = Table 7, read-out: RL DHFR IC50
[11] = Table 22, read-out: tgDHFR IC50
[12] = Table 22, read-out: rlDHFR IC50
[13] = Table 22, read-out: pcDHFR IC50

IC50 (RL DHFR; [6]): > 27 µM
IC50 (RL DHFR; [7]): > 27 µM
IC50 (Pc DHFR [1]; [8]): 44.8 µM
IC50 (Pc DHFR [1]; [9]): 44.8 µM
Structure (SMILES): CN(Cc1coc2nc(N)nc(N)c12)c1ccc(Cl)c(Cl)c1 [Compound 171, 2,4-Diamino-5-[(N-methyl-3′,4′-dichloroanilino)methyl]furo[2,3-d]pyrimidine]
IC50 (Tg DHFR; [4]): > 27 µM
IC50 (Tg DHFR; [5]): > 27 µM

IC50 (RL DHFR; [7]): 252 µM
Structure (SMILES): Nc1nc(N)c2c(CSc3ccccc3)coc2n1 [Compound 159, 2-4-Diamino-5-[(phenylthio)methyl]furo[2,3-d]pyrimidine]

Selectivity ratio rl/pc (Pc DHFR [2]): 0.89
Selectivity Ratio RL/Pc (Pc DHFR [2]): 0.89
IC50 (RL DHFR; [6]): 36.5 µM
IC50 (RL DHFR; [7]): 36.5 µM
IC50 (Pc DHFR [1]; [8]): 41 µM
IC50 (Pc DHFR [1]; [9]): 41 µM
Structure (SMILES): Nc1nc(N)c2c(CNc3ccc4ccccc4c3)coc2n1 [Compound 163, 2-4-Diamino-5-[(2-naphthylamino)methyl]furo[2,3-d]pyrimidine]
Selectivity ratio rl/tg (Tg DHFR; IC50 rlDHFR/IC50 tgDHFR): 0.96
Selectivity Ratio RL/Tg (Tg DHFR; Table 16): 0.96
IC50 (Tg DHFR; [4]): 38 µM
IC50 (Tg DHFR; [5]): 38 µM

IC50 (RL DHFR; [6]): > 31.3 µM
IC50 (RL DHFR; [7]): > 31.3 µM
IC50 (Pc DHFR [1]; [8]): > 31.3 µM
IC50 (Pc DHFR [1]; [9]): > 31.3 µM
Structure (SMILES): COc1cccc(NCc2coc3nc(N)nc(N)c23)c1 [Compound 175, 2,4-Diamino-5-[(3′-methoxyanilino)methyl]furo[2,3-d]-pyrimidine]
IC50 (Tg DHFR; [4]): > 31.3 µM
IC50 (Tg DHFR; [5]): > 31.3 µM

IC50 (RL DHFR; [7]): 23 µM
Structure (SMILES): Nc1nc(N)c2c(CSc3cccc4ccccc34)coc2n1 [Compound 160, 2,4-Diamino-5-[(1-naphthylthio)methyl]furo[2,3-d]pyrimidine]

Second part, the molecule before the results:

Structure (SMILES): Nc1nc(N)c2c(CNc3ccc(Oc4ccccc4)cc3)coc2n1 [Compound 166, 2,4-Diamino-5-[(4′-phenoxyanilino)methyl]furo[2,3-d]pyrimidine]
IC50 (Tg DHFR; [4]): 32.4 µM
IC50 (Tg DHFR; [5]): 32.4 µM

Structure (SMILES): COc1ccc(NCc2c[nH]c3nc(N)nc(N)c23)cc1OC [Compound 2, 2,4-diamino-5-[(3′,4′-dimethoxyanilino)methyl]pyrrolo[2,3-d]pyrimidine]
IC50 (Tg DHFR; Table 7, read-out: Tg DHFR IC50): 4.3 µM
IC50 (RL DHFR; [10]): 116 µM
IC50 (Pc DHFR [1]; Table 7, read-out: Pc DHFR IC50): 119 µM

Structure (SMILES): Nc1nc(N)c2c(CNc3cc(Cl)ccc3Cl)coc2n1 [Compound 169, 2,4-Diamino-5-[(2′,5′-dichloroanilino)methyl]furo[2,3-d]pyrimidine]
Selectivity ratio rl/pc (Pc DHFR [2]): 1.4
Selectivity Ratio RL/Pc (Pc DHFR [2]): 1.4
IC50 (RL DHFR; [7]): 71.9 µM
IC50 (Pc DHFR [1]; [8]): 50.9 µM
IC50 (Pc DHFR [1]; [9]): 50.9 µM

Structure (SMILES): COc1ccc(OC)c(NCc2c[nH]c3nc(N)nc(O)c23)c1 [Compound 408]
IC50 (Tg DHFR; [11]): 2.2 µM
rl/tg (Tg DHFR; Table 22): >21
IC50 (RL DHFR; [12]): > 47 µM
IC50 [3]: > 160 µM
% in parentheses after the > value, ecTS [3]: 21%
IC50 (Pc DHFR [1]; [13]): > 47 µM

Structure (SMILES): COc1ccc(OC)c(Cc2cnc3nc(N)nc(N)c3c2C)c1 [PTX, piritrexim, reference compound]
IC50 (RL DHFR; [10]): 0.001 µM

Structure (SMILES): COc1cc(NCc2c[nH]c3nc(N)nc(O)c23)cc(OC)c1OC [Compound 411]
IC50 (Tg DHFR; [11]): 6.9 µM
rl/tg (Tg DHFR; Table 22): >3
IC50 (RL DHFR; [12]): > 22 µM
IC50 [3]: > 290 µM
% in parentheses after the > value, ecTS [3]: 8%
IC50 (Pc DHFR [1]; [13]): > 22 µM

Structure (SMILES): Nc1nc(O)c2c(CNc3cc(Cl)cc(Cl)c3)c[nH]c2n1 [Compound 413]
IC50 (Tg DHFR; [11]): 3 µM
rl/tg (Tg DHFR; Table 22): >21
IC50 (RL DHFR; [12]): > 63 µM
IC50 (Pc DHFR [1]; [13]): 66.2 µM

Structure (SMILES): COc1cc(NCc2c[nH]c3nc(N)[nH]c(=O)c23)cc(OC)c1 [Compound 409]
IC50 (Tg DHFR; [11]): 2.6 µM
rl/tg (Tg DHFR; Table 22): >8
IC50 (RL DHFR; [12]): > 20 µM
IC50 [3]: > 160 µM
% in parentheses after the > value, ecTS [3]: 0%
IC50 (Pc DHFR [1]; [13]): > 20 µM

Structure (SMILES): Nc1nc2[nH]cc(CNc3ccc(Cl)cc3Cl)c2c(=O)[nH]1 [Compound 414]
IC50 (Tg DHFR; [11]): 2.2 µM
rl/tg (Tg DHFR; Table 22): >7
IC50 (RL DHFR; [12]): > 15 µM
IC50 (Pc DHFR [1]; [13]): > 15 µM
